According to patent US20150147276A1, “NANOTHERAPEUTICS FOR DRUG TARGETING” (PRESIDENT AND FELLOWS OF HARVARD COLLEGE, priority 2012, published 2015):
Entries after “also recorded” stand apart in the source; their conditions may differ.

Tests used:
[1] = system: thrombus in FeCl3-injured mesenteric arteries; assay: Mouse ferric chloride arterial injury (thrombosis) model; assay type: in vivo; conditions: bolus, same tPA dose (50 ng)
Procedure: A previously described model was used with minor modifications (16). In brief, male C57BL/6 mice (3-4 weeks old) were anesthetized with 2.5% tribromoethanol (0.15 ml/10 g) and injected with fluorescently labeled platelets (calceinRed/Orange, ˜1×10^9 platelets/kg). An incision was made through the abdominal wall to expose the mesentery and arterioles (˜100 μm in diameter) were visualized using a Zeiss Axiovert 135-inverted microscope (objectives: 10× and 32×, Carl Zeiss Microlmaging, Inc.) and recorded on videotape. Whatman filter paper saturated with FeCl3 (10%) solution was applied topically for 5 min, which caused denudation of the endothelium. […] Following this bolus injection, the vessels were monitored until full occlusion occurred (blood flow stopped) and lasted for more than 10 seconds. The shear rate was calculated using an optical Doppler velocity meter (Microcirculation Research Institute, Texas A&M College of Medicine, College Station, Tex.) (17). […]

[2] = biological target: T1, fibrin clots (Homo sapiens, UniProt P02671+P02675+P02679); assay: Microfluidic model of vascular embolism (fibrin clot lysis); assay type: biochemical; conditions: 50 ng/ml tPA, same flow conditions
T1 construct: purchased Enzyme Research Laboratories, IN (fibrinogen, α-thrombin); Cell Sciences, MA (plasminogen)
T1 sequence (P02671 36-629 limits assumed): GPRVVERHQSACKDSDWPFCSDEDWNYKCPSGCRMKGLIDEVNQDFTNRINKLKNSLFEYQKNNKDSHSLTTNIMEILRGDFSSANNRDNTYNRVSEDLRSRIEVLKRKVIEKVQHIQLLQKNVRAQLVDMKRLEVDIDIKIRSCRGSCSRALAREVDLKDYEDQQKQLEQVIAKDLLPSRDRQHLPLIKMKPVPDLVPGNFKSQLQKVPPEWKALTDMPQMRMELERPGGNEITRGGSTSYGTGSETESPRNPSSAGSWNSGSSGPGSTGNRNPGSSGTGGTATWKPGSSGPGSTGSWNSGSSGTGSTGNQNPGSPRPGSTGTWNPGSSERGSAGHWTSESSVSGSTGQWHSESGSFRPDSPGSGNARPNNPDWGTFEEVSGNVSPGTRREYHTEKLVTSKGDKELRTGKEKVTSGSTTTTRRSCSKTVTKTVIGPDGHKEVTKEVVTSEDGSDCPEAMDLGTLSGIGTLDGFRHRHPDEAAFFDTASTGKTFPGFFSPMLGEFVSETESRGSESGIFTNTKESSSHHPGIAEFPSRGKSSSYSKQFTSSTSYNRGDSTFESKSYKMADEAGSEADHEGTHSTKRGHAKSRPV
T1 sequence (P02675 45-491 limits assumed): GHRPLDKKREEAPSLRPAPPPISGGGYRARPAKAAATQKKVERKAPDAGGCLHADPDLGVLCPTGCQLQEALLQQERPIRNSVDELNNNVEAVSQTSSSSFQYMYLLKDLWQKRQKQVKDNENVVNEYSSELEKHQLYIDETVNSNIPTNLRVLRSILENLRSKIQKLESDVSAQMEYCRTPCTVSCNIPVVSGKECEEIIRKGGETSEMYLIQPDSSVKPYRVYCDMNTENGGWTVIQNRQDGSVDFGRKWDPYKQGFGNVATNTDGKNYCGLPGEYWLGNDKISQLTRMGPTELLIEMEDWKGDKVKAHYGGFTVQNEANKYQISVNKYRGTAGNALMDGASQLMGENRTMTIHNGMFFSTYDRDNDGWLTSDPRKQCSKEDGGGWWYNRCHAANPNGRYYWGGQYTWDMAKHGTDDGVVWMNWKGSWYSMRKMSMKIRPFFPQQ
T1 sequence (P02679 27-437 isoform P02679-2 limits assumed): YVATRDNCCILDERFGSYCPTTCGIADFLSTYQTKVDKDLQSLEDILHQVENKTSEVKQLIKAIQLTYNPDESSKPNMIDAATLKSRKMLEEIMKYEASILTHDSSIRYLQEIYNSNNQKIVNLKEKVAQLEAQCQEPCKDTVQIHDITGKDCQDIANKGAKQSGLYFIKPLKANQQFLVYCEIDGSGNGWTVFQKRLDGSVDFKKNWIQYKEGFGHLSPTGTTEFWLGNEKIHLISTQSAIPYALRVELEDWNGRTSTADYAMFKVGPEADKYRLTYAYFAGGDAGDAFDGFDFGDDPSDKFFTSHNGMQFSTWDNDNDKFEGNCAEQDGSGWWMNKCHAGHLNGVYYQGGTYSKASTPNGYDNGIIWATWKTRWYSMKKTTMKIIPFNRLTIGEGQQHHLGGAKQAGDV
Excerpt: Microfluidic devices with a narrowed cross-sectional area (80 μm high×0.5 mm wide×200 mm long) were fabricated using soft lithography as described above. Fibrin clots formed as described below that were infused into the main channel lodged and obstructed the flow in these smaller channels. A solution of tPA or tPA coated SA-NTs was infused at a flow rate corresponding to a shear stress of 10 dyne/cm2 in an unobstructed channel. Prior to infusion of the tPA solutions, bovine plasminogen (Cell Sciences, MA) was added to a final concentration of 2.2 μM (30). During the fibrinolysis process, the fibrin clot sizes were monitored in real-time (images acquired every 30 sec) on an inverted Zeiss microscope.
(§1) Fibrin clots were formed by adding CaCl2 (20 mM) and human α-thrombin (1 units/ml final concentrations, Enzyme Research Laboratories, IN) to human fibrinogen (5 mg/ml, Enzyme Research Laboratories, IN), as previously described (23, 31). This solution was immediately added drop-wise to a solution of canola oil with Span-80 (0.05%). The emulsion was mixed at 350 rpm for 4 hr and centrifuged (500 g, 5 min), followed by repeated washing in ethanol and water. The diameter of the resulting fibrin beads was determined by optical microscopy to be ˜250 μm. By adjusting the mixing speed in the described protocol, fibrin beads of smaller defined sizes were produced.

[3] = system: fibrin clots in pulmonary arteries; assay: Ex vivo mouse pulmonary embolism model (lung ventilation-perfusion)
Procedure: as §1
6-8 week-old C57BL/6 male mice (Jackson Laboratory, Bar Harbor, Me.) were weighed and anesthetized with Avertin (200 mg/kg IP). The trachea was incised via surgical tracheotomy, and cannulated with a blunted 22G stainless steel needle tip. The lungs were subsequently ventilated at a rate of 60 breaths/min, with a Peak Inspiratory Pressure (Pip) of 10 cm H2O and a Positive End Expiratory Pressure (Peep) of 3 cmH2O with compressed air using a mouse ventilator (VCM-R, Hugo Sachs Elektroniks, Germany). Ex vivo ventilation and perfusion of the mouse lung was performed using an IL1 ex vivo mouse lung ventilation-perfusion system (Harvard Apparatus, Natick, Mass.), (32). Following initiation of mechanical ventilation, the chest was opened via thoracotomy, and heparin (100 IU) was injected into the right ventricle. […] A suture was placed around the pulmonary artery and aorta. Cannulae made from polyethylene tubing (PE90 (0.86 mm ID, 1.7 mm OD)) were placed in the pulmonary artery (PA) and left atrium (LA), and lungs were perfused with RPMI-1640 with 4% Bovine Albumin (PROBUMIN™ Reagent Grade, Billerica, Mass.) and 0.7 g NaCl/500 ml via a roller pump (ISM 834C, Ismatec SA, Switzerland) set at a constant flow rate of 0.5 ml/min in a recirculating system with a system volume of 6 ml. Perfusate and lung temperatures were maintained at 37° C. by housing the entire ex-vivo ventilation perfusion system inside a standard cell incubator without CO2 (Forma Scientific, Ohio). Humidity was maintained in the range […]. Pulmonary arterial and left atrial pressures and airway flow and pressures were recorded with dedicated Type 379 vascular pressure and DLP2.5 flow and MPX Type 399/2airway pressure transducers and TAM-A amplifiers (Hugo Sachs Elektroniks, Germany). Vascular pressures were zeroed at the mid lung level prior to each experiment and recorded using Polyview16© software (Grass Technologies, West Warwick, R.I.). Prior to injection of experimental fibrin clots (prepared as above), the measured pressures were allowed to stabilize and remain stable for a period of more than 10 minutes. A solution of fibrin clots suspended in perfusion medium was infused at a flow rate of 0.1 ml/min and mixed with the regular perfusion line entering the pulmonary artery. The fibrin clot suspension was infused until the pulmonary artery pressure increased to ˜three-fold higher than the baseline. The system was then allowed to equilibrate and remain stable for at least 10 minutes. Next, tPA-coated SA-NTs or free soluble tPA was added to the main perfusion line and circulated through the perfusion system. As in the microfluidic device experiments, when tPA was perfused, plasminogen was added to obtain a final concentration of 2.2 μM. Pulmonary artery and vein pressures were acquired continuously during the perfusion period. […]

Substance: tissue plasminogen activator [free tPA]
- delay of time to full vascular occlusion [1]: did not produce any significant delay; also recorded: neither addition of free tPA, pre-dissociated tPA-NPs, nor heat-fused tPA-NP microaggregates (that do not dissociate in high shear) produced any detectable effects
- reduction in clot size [2]: < 5%
- effect on pulmonary artery pressure ([3]; 50 ng/ml): did not reduce pulmonary artery pressure
- effect on pulmonary artery pressure ([3]; 50 ng/ml, listed as soluble tPA): failed to produce any significant response
- effect on pulmonary artery pressure ([3]; 500 ng/ml (ten times higher dose)): did not reduce pulmonary artery pressure
- effect on pulmonary artery pressure ([3]; 500 ng/ml (ten times higher dose), listed as soluble tPA): failed to produce any significant response
- effect on pulmonary artery pressure ([3]; 5,000 ng/ml (100-fold higher dose)): produced similar effects
